Laboratory results reported in patent US6500323B1, “Methods and software for designing microfluidic devices” (Caliper Technologies Corp., priority 1999, dated 2002).

Columns and labels:
Protein Kinase A (PKA) = Protein Kinase A (PKA) (Homo sapiens, UniProt P17612); assay: nonfluorogenic (mobility shift) assay of kinase activity in microfluidic device; assay type: biochemical; settings: PKA 100 nM, 10 μM F1-Kemptide; different concentrations of inhibitor sipped; FIG. 3C
Protocol: The device illustrated in FIG. 3B was used as described to perform a nonfluorogenic assay of kinase activity, and particularly, to screen for inhibition of kinase activity by inhibitors brought into the device via the external sampling capillary. In particular, Protein Kinase A (PKA) enzyme (100 nM) was placed into well 350, while the fluorescent substrate (10 μM F1-Kemptide) was placed into well 352, different concentrations of an exemplary PKA inhibitor (H-89) were sipped into the reaction channel portion 304 via an external capillary element (the entry point of which is shown as 302) at regular intervals. Flow of materials, including sipping of inhibitor was caused by applying vacuum (as described above) at waste reservoir 358. An electric field was constantly applied across the length of channel segment 310 by virtue of different voltages being applied at reservoirs 354 and 356. The process utilized a 5 second sipping time, with an overall 100 second duty cycle, e.g., reaction time plus separation time plus clearing time.

[1] = target: T1, Gq coupled P2u purinergic receptor (THP-1) (Homo sapiens, UniProt P41231); assay: model calcium flux assay, dose response in microfluidic device; assay type: cell-based; settings: THP-1 cells preloaded with Fluo-3 or Fluo-4; UTP 100, 300, 1000 and 3000 nM; detection 15 seconds after initial exposure; FIG. 2D/2E
T1 construct: cell line that carried the Gq coupled P2u purinergic receptor (THP-1); endogenous in cells; host or cells: THP-1 (human monocytic leukemia cell line)
T1 sequence (P41231 whole entry): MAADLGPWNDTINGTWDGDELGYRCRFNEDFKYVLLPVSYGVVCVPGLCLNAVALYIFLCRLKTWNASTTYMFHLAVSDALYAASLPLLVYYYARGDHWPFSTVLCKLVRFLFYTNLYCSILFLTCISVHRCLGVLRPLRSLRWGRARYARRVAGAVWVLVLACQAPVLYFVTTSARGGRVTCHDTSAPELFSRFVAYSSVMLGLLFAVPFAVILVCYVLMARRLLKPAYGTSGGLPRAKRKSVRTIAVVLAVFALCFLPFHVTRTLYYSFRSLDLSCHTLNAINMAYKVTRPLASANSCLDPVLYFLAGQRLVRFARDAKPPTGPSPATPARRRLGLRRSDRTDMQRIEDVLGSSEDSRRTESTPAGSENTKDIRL
Description: The device shown in FIG. 2C was fabricated and used to test the dose response of a human monocytic leukemia cell line that carried the Gq coupled P2u purinergic receptor (THP-1), as a model calcium flux assay. Briefly, a phospholipase C/IP3/calcium signal transduction pathway is activated when the receptor binds to its ligand, UTP. When the cells are preloaded with a calcium sensitive indicator, i.e., Fluo-3 or Fluo-4 (available from Molecular Probes, Eugene, Oreg.), the transient increase in intracellular calcium is then detected as a fluorescent signal.
In the present example and with reference to FIGS. 2A and 2C, THP-1 cells were preloaded with Fluo-3 or Fluo-4, as well as a nucleic acid stain (Syto-62 from Molecular Probes). The cells were washed and resuspended in Cell Buffer (1.56 ml HBSS, 0.94 ml 33% Ficoll, 5 μl HEPES (1 M stock), 25 μl 100×PBC, 25 μl 10% BSA, and 0.546 ml OPTI-Prep (65% stock)) and added to reservoir 206. Different concentrations of UTP in Cell Buffer (100, 300, 1000 and 3000 nM, respectively) were then added to reagent reservoirs 210-216. […]
In order to monitor the stepwise increase of each UTP reagent solution, an additional marker solution, BODIPY-arginine, was added to the reagent reservoirs 210-216. […] Briefly, the slope of calcium signal (response) vs. Syto 62 signal (cell number) was calculated for each UTP concentration.

SMILES	inhibition of kinase activity (deviation from steady state) (Protein Kinase A (PKA))	calcium signal (response), fluorescent signal from each cell [1]
O=S(=O)(NCCNC/C=C/c1ccc(Br)cc1)c1cccc2cnccc12 [H-89]	greatest deviation from steady state (A) is seen with highest inhibitor concentration	
O=c1ccn([C@@H]2O[C@H](COP(=O)(O)OP(=O)(O)OP(=O)(O)O)[C@@H](O)[C@H]2O)c(=O)[nH]1 [UTP]		peaks increase discernibly in size with each stepwise addition
